From PubChem BioAssay AID1259407 (Chemical Carcinogenesis Research Information System (CCRIS), 2018)
Calls of active or inactive are those of the source. The rule behind the calls is not given here.

System: CCRIS mutagenicity, Ames/micronucleus/aberration tests
Assay: CCRIS mutagenicity studies
[1] = Test System: AMES SALMONELLA TYPHIMURIUM, Strain/Indicator: TA98, Metabolic Activation: NONE, Method: PREINCUBATION
[2] = Test System: AMES SALMONELLA TYPHIMURIUM, Strain/Indicator: TA100, Metabolic Activation: NONE, Method: PREINCUBATION
[3] = Test System: AMES SALMONELLA TYPHIMURIUM, Strain/Indicator: TA98, Metabolic Activation: NONE, Method: STANDARD PLATE
[4] = Test System: AMES SALMONELLA TYPHIMURIUM, Strain/Indicator: TA98, Metabolic Activation: RAT, LIVER, S-9, AROCLOR 1254, Method: STANDARD PLATE
[5] = Test System: AMES SALMONELLA TYPHIMURIUM, Strain/Indicator: TA100, Metabolic Activation: NONE, Method: STANDARD PLATE
[6] = Test System: AMES SALMONELLA TYPHIMURIUM, Strain/Indicator: TA100, Metabolic Activation: RAT, LIVER, S-9, AROCLOR 1254, Method: STANDARD PLATE
[7] = Test System: AMES SALMONELLA TYPHIMURIUM, Strain/Indicator: TA1535, Metabolic Activation: NONE, Method: STANDARD PLATE
[8] = Test System: AMES SALMONELLA TYPHIMURIUM, Strain/Indicator: TA1535, Metabolic Activation: RAT, LIVER, S-9, AROCLOR 1254, Method: STANDARD PLATE
[9] = Test System: AMES SALMONELLA TYPHIMURIUM, Strain/Indicator: TA1538, Metabolic Activation: NONE, Method: STANDARD PLATE
[10] = Test System: AMES SALMONELLA TYPHIMURIUM, Strain/Indicator: TA1538, Metabolic Activation: RAT, LIVER, S-9, AROCLOR 1254, Method: STANDARD PLATE

SMILES: CC1=NN(c2ccccc2)C(=O)C1
- mutagenic call (Test System: AMES SALMONELLA TYPHIMURIUM, Strain/Indicator: TA98, Metabolic Activation: HAMSTER, LIVER, S-9, AROCLOR 1254 (10%), Method: PREINCUBATION): inactive; negative
- mutagenic call [1]: inactive; negative
- mutagenic call (Test System: AMES SALMONELLA TYPHIMURIUM, Strain/Indicator: TA98, Metabolic Activation: RAT, LIVER, S-9, AROCLOR 1254 (10%), Method: PREINCUBATION): inactive; negative
- mutagenic call (Test System: AMES SALMONELLA TYPHIMURIUM, Strain/Indicator: TA100, Metabolic Activation: HAMSTER, LIVER, S-9, AROCLOR 1254 (10%), Method: PREINCUBATION): inactive; negative
- mutagenic call [2]: inactive; negative
- mutagenic call (Test System: AMES SALMONELLA TYPHIMURIUM, Strain/Indicator: TA100, Metabolic Activation: RAT, LIVER, S-9, AROCLOR 1254 (10%), Method: PREINCUBATION): inactive; negative
- mutagenic call (Test System: AMES SALMONELLA TYPHIMURIUM, Strain/Indicator: TA1535, Metabolic Activation: HAMSTER, LIVER, S-9, AROCLOR 1254 (10%), Method: PREINCUBATION): inactive; negative
- mutagenic call (Test System: AMES SALMONELLA TYPHIMURIUM, Strain/Indicator: TA1535, Metabolic Activation: NONE, Method: PREINCUBATION): inactive; negative
- mutagenic call (Test System: AMES SALMONELLA TYPHIMURIUM, Strain/Indicator: TA1535, Metabolic Activation: RAT, LIVER, S-9, AROCLOR 1254 (10%), Method: PREINCUBATION): inactive; negative
- mutagenic call (Test System: AMES SALMONELLA TYPHIMURIUM, Strain/Indicator: TA1537, Metabolic Activation: HAMSTER, LIVER, S-9, AROCLOR 1254 (10%), Method: PREINCUBATION): inactive; negative
- mutagenic call (Test System: AMES SALMONELLA TYPHIMURIUM, Strain/Indicator: TA1537, Metabolic Activation: NONE, Method: PREINCUBATION): inactive; negative
- mutagenic call (Test System: AMES SALMONELLA TYPHIMURIUM, Strain/Indicator: TA1537, Metabolic Activation: RAT, LIVER, S-9, AROCLOR 1254 (10%), Method: PREINCUBATION): inactive; negative
- mutagenic call (Test System: Ames Salmonella typhimurium, Strain/Indicator: TA98, Metabolic Activation: None, Method: Preincubation): inactive; negative
- mutagenic call (Test System: Ames Salmonella typhimurium, Strain/Indicator: TA98, Metabolic Activation: Rat, Liver, S-9, Phenobarbital and 5,6-benzoflavone, Method: Preincubation): inactive; negative
- mutagenic call (Test System: Ames Salmonella typhimurium, Strain/Indicator: TA100, Metabolic Activation: None, Method: Preincubation): inactive; negative
- mutagenic call (Test System: Ames Salmonella typhimurium, Strain/Indicator: TA100, Metabolic Activation: Rat, Liver, S-9, Phenobarbital and 5,6-benzoflavone, Method: Preincubation): inactive; negative
- mutagenic call (Test System: Ames Salmonella typhimurium, Strain/Indicator: TA1535, Metabolic Activation: None, Method: Preincubation): inactive; negative
- mutagenic call (Test System: Ames Salmonella typhimurium, Strain/Indicator: TA1535, Metabolic Activation: Rat, Liver, S-9, Phenobarbital and 5,6-benzoflavone, Method: Preincubation): inactive; negative
- mutagenic call (Test System: Ames Salmonella typhimurium, Strain/Indicator: TA1537, Metabolic Activation: None, Method: Preincubation): inactive; negative
- mutagenic call (Test System: Ames Salmonella typhimurium, Strain/Indicator: TA1537, Metabolic Activation: Rat, Liver, S-9, Phenobarbital and 5,6-benzoflavone, Method: Preincubation): inactive; negative
- mutagenic call (Test System: E. COLI, Strain/Indicator: WP2 UVRA, Metabolic Activation: HAMSTER, LIVER, S-9, AROCLOR 1254, Method: STANDARD PLATE): inactive; negative
- mutagenic call (Test System: E. COLI, Strain/Indicator: WP2 UVRA, Metabolic Activation: HAMSTER, LIVER, S-9, Method: STANDARD PLATE): inactive; negative
- mutagenic call (Test System: E. COLI, Strain/Indicator: WP2 UVRA, Metabolic Activation: MOUSE, LIVER, S-9, AROCLOR 1254, Method: STANDARD PLATE): inactive; negative
- mutagenic call (Test System: E. COLI, Strain/Indicator: WP2 UVRA, Metabolic Activation: MOUSE, LIVER, S-9, Method: STANDARD PLATE): inactive; negative
- mutagenic call (Test System: E. COLI, Strain/Indicator: WP2 UVRA, Metabolic Activation: NONE, Method: STANDARD PLATE): inactive; negative
- mutagenic call (Test System: E. COLI, Strain/Indicator: WP2 UVRA, Metabolic Activation: RAT, LIVER, S-9, AROCLOR 1254, Method: STANDARD PLATE): inactive; negative
- mutagenic call (Test System: E. COLI, Strain/Indicator: WP2 UVRA, Metabolic Activation: RAT, LIVER, S-9, Method: STANDARD PLATE): inactive; negative
- mutagenic call (Test System: E. coli, Strain/Indicator: WP2uvrA/pKM101, Metabolic Activation: None, Method: Preincubation): inactive; negative
- mutagenic call (Test System: E. coli, Strain/Indicator: WP2uvrA/pKM101, Metabolic Activation: Rat, Liver, S-9, Phenobarbital and 5,6-benzoflavone, Method: Preincubation): inactive; negative
- mutagenic call (Test System: MOUSE LYMPHOMA, Strain/Indicator: L5178Y (TK+/TK-), Metabolic Activation: NONE, Method: SUSPENSION/PLATE): inactive; negative
- mutagenic call (Test System: MOUSE LYMPHOMA, Strain/Indicator: L5178Y (TK+/TK-), Metabolic Activation: RAT, LIVER, S-9, AROCLOR 1254, Method: SUSPENSION/PLATE): active; positive

SMILES: Nc1ncnc2c1ncn2[C@@H]1O[C@H](CO)[C@@H](O)[C@H]1O
- mutagenic call (Test System: AMES SALMONELLA TYPHIMURIUM, Strain/Indicator: TA97, Metabolic Activation: NONE, Method: STANDARD PLATE): inactive; negative
- mutagenic call (Test System: AMES SALMONELLA TYPHIMURIUM, Strain/Indicator: TA97, Metabolic Activation: RAT, LIVER, S-9, AROCLOR 1254, Method: STANDARD PLATE): inactive; negative
- mutagenic call [3]: inactive; negative
- mutagenic call [4]: inactive; negative
- mutagenic call [5]: inactive; negative
- mutagenic call [6]: inactive; negative
- mutagenic call [7]: inactive; negative
- mutagenic call [8]: inactive; negative
- mutagenic call [9]: inactive; negative
- mutagenic call [10]: inactive; negative
- mutagenic call (Test System: CHINESE HAMSTER OVARY, Strain/Indicator: CHO-KL-BH4 (HGPRT), Metabolic Activation: NONE): inactive; negative
- mutagenic call (Test System: CHINESE HAMSTER OVARY, Strain/Indicator: CHO-KL-BH4 (HGPRT), Metabolic Activation: RAT, LIVER, S-9, AROCLOR 1254): inactive; negative

SMILES: O=C(Nc1ccc2c(O)c(N=Nc3ccc(N=Nc4ccc(S(=O)(=O)O)cc4)cc3)c(S(=O)(=O)O)cc2c1)c1ccccc1
- mutagenic call [3]: inactive; negative
- mutagenic call [4]: inactive; negative
- mutagenic call [5]: inactive; negative
- mutagenic call [6]: inactive; negative
- mutagenic call [7]: inactive; negative
- mutagenic call [8]: inactive; negative
- mutagenic call (Test System: AMES SALMONELLA TYPHIMURIUM, Strain/Indicator: TA1537, Metabolic Activation: NONE, Method: STANDARD PLATE): inactive; negative
- mutagenic call (Test System: AMES SALMONELLA TYPHIMURIUM, Strain/Indicator: TA1537, Metabolic Activation: RAT, LIVER, S-9, AROCLOR 1254, Method: STANDARD PLATE): inactive; negative
- mutagenic call [9]: inactive; negative
- mutagenic call [10]: inactive; negative

SMILES: N#CCCC(=O)CCc1ccc(C(=O)O)cc1
- mutagenic call [1]: active; positive
- mutagenic call (Test System: AMES SALMONELLA TYPHIMURIUM, Strain/Indicator: TA98, Metabolic Activation: RAT, LIVER, S-9, PCB, Method: PREINCUBATION): inactive; negative
- mutagenic call [2]: inactive; negative
- mutagenic call (Test System: AMES SALMONELLA TYPHIMURIUM, Strain/Indicator: TA100, Metabolic Activation: RAT, LIVER, S-9, PCB, Method: PREINCUBATION): inactive; negative
